This note sets out measurements from publication doi:10.1101/2020.10.25.354381v1, “Multi-dimensional digital bioassay platform based on an air-sealed femtoliter reactor array device” (biorxiv, 2020).

Experiment [1] has as its system T1, CiALP (calf intestinal ALP).
T1 construct: gene ALPI; homodimeric metalloenzyme
Kind of experiment: fluorogenic ALP assay, bulk microtiter plate, Hill fit. Format: biochemical, Bos taurus. As to conditions: […] 4-MUP, […] DEA-HCl, […] MgCl2, […] ZnSO4, pH […] TWEEN20, […] °C; […] min preincubation.

Experiment [2] has as its target T2, EcALP (D101S, an active mutant of Escherichia coli ALP) (Escherichia coli, UniProt P00634, D123S).
T2 construct: gene phoA; D101S mutant, cell-free synthesis (PURExpress with disulfide bond enhancer), not purified; homodimeric metalloenzyme
Described as above. In kind it is biochemical. As to conditions: […] 4-MUP, […] DEA-HCl, […] MgCl2, […] ZnSO4, pH […] TWEEN20, […] °C; […] min preincubation; diluted cell-free synthesis mixture.

T2 sequence (P00634 22-471 D123S): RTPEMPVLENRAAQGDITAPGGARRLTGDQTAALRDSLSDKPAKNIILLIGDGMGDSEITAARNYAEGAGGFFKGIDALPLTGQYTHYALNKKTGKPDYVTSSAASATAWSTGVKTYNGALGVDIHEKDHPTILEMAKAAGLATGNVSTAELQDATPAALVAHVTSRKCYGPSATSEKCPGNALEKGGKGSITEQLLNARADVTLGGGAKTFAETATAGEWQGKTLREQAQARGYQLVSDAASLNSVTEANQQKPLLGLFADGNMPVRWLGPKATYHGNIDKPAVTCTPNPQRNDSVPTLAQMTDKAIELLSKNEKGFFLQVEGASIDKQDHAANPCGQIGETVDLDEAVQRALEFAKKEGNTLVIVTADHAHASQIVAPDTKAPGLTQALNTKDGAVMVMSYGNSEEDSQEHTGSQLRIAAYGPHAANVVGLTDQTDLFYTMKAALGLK

As to `O=P(O)(O)O` [Pi, phosphate], the 50% inhibitory concentration (IC50) (as a rule, the concentration at which inhibition is half-maximal) in experiment [1] amounted to 1600 µM.
With `[O]=[V]([OH])([OH])[OH]` [V, vanadate], the IC50 was 7800 µM in experiment [2] and 200 µM in experiment [1].
